Laboratory results as given in PMC5943252, “Contrasting roles for actin in the cellular uptake of cell penetrating peptide conjugates” (Scientific Reports, 2018).

Experiments:
Type in all cases: cell-based
[1] = test system: actin architecture in A431 cells; assay: Actin cytoskeleton visualisation (Rh-P staining, confocal microscopy); details: A431 cells, Rh-P staining; for effect on actin cytoskeleton: 30 min
Experimental: Analysis was performed on a Leica SP5 confocal laser scanning microscope, equipped with laser lines: 405 Blue Diode (Excitation wavelength 405 nm for Hoechst 33342) Argon (Excitation wavelength 488 nm for Alexa 488 or EGFP), Helium Neon Laser 1 (Excitation wavelength 543 nm for Tetramethyl-Rhodamine Phalloidin (Rh-P)) and Laser 2 (Excitation wavelength 633 nm for Alexa 647 conjugates). All images presented in this study were obtained using a HCX PL APO 63x 1.4 NA oil immersion objective with Leica Type F immersion oil. Parameters “Gain” and “Off-set” of the individual photomultiplier tubes were adjusted between experiments in order to obtain optimal image acquisition avoiding saturation. For multi-channel image acquisition, the channels were scanned in a sequential recording mode to avoid spectral cross-talk caused by overlapping excitation and/or emission spectra of fluorophores. Acquisition mode “XYZ” and image resolutions (pixels/image) of 512 × 512 or 1024 × 1024 were selected and pinhole size was set to 1 Airy Unit. Depending on acquisition requirements the scan speed was set as either 400 or 700 Hz and for single section images, the same optical section was scanned 3x to generate a line average image. Captured images were then analysed using ImageJ. In some cases (live cell imaging) the same cells were also imaged using […] microscopy (DIC).
A recently described method was utilised giving information on actin architecture at different regions of the cells termed basal and cell body and apex (CBA). For actin staining, HeLa (0.5 × 10^6 cells/well) or A431 (1.0 × 10^6 cells/well) cells in 2.5 mL D-MEM containing 10% FBS were seeded on round borosilicate No.1.5 cover slips in 6 –well plates and allowed to adhere for 24 hr at 37 °C/5% CO2, to reach a confluence of ~80%. The cells were then treated with actin disrupters as described above, washed 3x with PBS and fixed for 15 min at room temperature with 3% PFA in PBS. Cells were then washed 3x with PBS and permeabilised with 0.2% Triton X-100 in PBS at room temperature for 5 min, washed 3x with PBS and stained for cell nuclei with 1.0 µg/ml Hoechst 33342 in PBS and for polymerised actin with 1.0 µg/ml Rh-P in PBS for 15 min at room temperature. The cells were finally washed 3x with PBS and once with distilled water, coverslips were mounted in DAKO mounting medium on glass microscope slides and imaged by confocal microscopy.

A431 cells [2] = assay: Flow cytometry of cellular uptake of EGFP-R8 in the presence of actin inhibitors; details: for Normalised Fluoresence Intensity (EGFP-R8): mean of geometric means, three independent experiments
Experimental: A431 cells were seeded onto 12-well plates and cultured for 24 hr to be ~80% confluent on the day of experiment. Cells were washed twice with PBS and then incubated with diluent control (DMSO/dH2O) or actin inhibitors as previously described. They were then loaded with serum-free DMEM containing either 2 µM EGFP-R8, 5 µg/ml TF-647 or 0.1 mg/ml Dex-647 in the presence or absence of actin inhibitors for times stipulated in the figure legends. The plates were then placed on ice to prevent further uptake and washed 3x with either ice-cold PBS or 0.5 mg/ml heparin in PBS. To remove the plasma membrane bound TF, cells were washed 3x with ice-cold PBS followed by an incubation for 1 min in ice-cold acid wash (0.2 M acetic acid, 0.2 M NaCl, pH 2.0)[33]. All cells were then washed twice with PBS at room temperature before trypsinisation at 37 °C for 5 min before placing the detached cells in centrifuge tubes and centrifuging at 4 °C for 3 min at 800 × g. The obtained cell suspension was washed 3x with ice-cold PBS and finally resuspended in 300 µl ice-cold PBS for measurement of cell-associated fluorescence (cell gate 50,000 cells) by flow cytometry on a BD FACSVerse utilising a 488 laser and 527/32 filter for EGFP analysis and a 633 nm laser and 660/10 filter for Alexa 647. Cells were gated using FSC-A/SSC-A to isolate single cell populations and analysed using FlowJo.
Flow cytometry measurements represent the mean fluorescence from three independent experiments performed in duplicate, where each individual data point was the geometric mean. A two-tailed unpaired Students t-test was used to test for differences within experiments. Significant differences were classed as having a P value of < 0.05.

A431 cells [3] = assay: Live cell confocal microscopy of uptake of endocytic probes and R8 conjugates, with or without actin inhibitors
Experimental: HeLa or A431 cells were seeded on 35 mm MatTek dishes (Ashland, US) at respective densities of 5 × 10^5 cells/dish and 1.0 × 10^6 cells/dish and maintained in 2.5 mL D-MEM containing 10%, 100 IU/mL penicillin and 100 µg/mL streptomycin. Cells were then allowed to adhere for 24 hr at 37 °C/5% CO2 to reach a confluence of ~80%. On the day of experimentation, they were washed with PBS and then incubated with 100 µl serum-free D-MEM (thus reducing well described serum binding effects[32]) containing either 2 µM CPP conjugate (R8-Alexa488 or EGFP-R8), 5 µg/ml transferrin-Alexa 647 (TF-647) or 0.1 mg/ml dextran (10 kDa)-Alexa 647 (Dex-647). The cells were then incubated for 1 hr (or 30 min for TF-647) at 37 °C/5% CO2 before washing 3x with PBS (TF-647 or Dex-647) or PBS 0.5 mg/mL heparin (R8-conjugates). They were then washed once with PBS, prior to the addition of 2 mL of imaging medium (phenol red free RPMI, 20 mM HEPES pH 7.4) and analysis by live cell confocal microscopy.
Cells were seeded on MatTek dishes as previously described and were washed with PBS before preincubation at 37 °C with diluent control (DMSO) or actin inhibitors: 10 µM Cyt D for 15 min; 0.1–1 µM Lat B for 30 min; 0.2–4 µM JAS for 45 min; 50–100 µM Y27632 for 4 hr in serum-free D-MEM at 37 °C/5% CO2. Endocytic probes (TF-647, Dex-647) or R8-conjugates were then incubated with the cells in the absence (control) or presence of the inhibitors and further incubated at 37 °C/5% CO2 for times specified in figure legends prior to analysis by confocal microscopy. For pulse chase experiments, A431 cells were incubated with 0.1 mg/ml Dex-647 for 2 hr (pulse) followed by washing and a further 4 hr (chase) in fresh complete growth medium. EGFP-R8 (2 µM) was then added for 1 hr in the absence or presence of 10 µM Cyt D. EGFP-R8 and Dex-647 subcellular distribution was then analysed in live cells using confocal microscopy. For low temperature experiments, cells were preincubated with Cyt D as above and then placed on ice for 2 min prior to addition of ice cold EGFP-R8. The cells were then maintained under these conditions for 1 hr prior to analysis by confocal microscopy.
Analysis was performed on a Leica SP5 confocal laser scanning microscope, equipped with laser lines: 405 Blue Diode (Excitation wavelength 405 nm for Hoechst 33342) Argon (Excitation wavelength 488 nm for Alexa 488 or EGFP), Helium Neon Laser 1 (Excitation wavelength 543 nm for Tetramethyl-Rhodamine Phalloidin (Rh-P)) and Laser 2 (Excitation wavelength 633 nm for Alexa 647 conjugates). All images presented in this study were obtained using a HCX PL APO 63x 1.4 NA oil immersion objective with Leica Type F immersion oil. Parameters “Gain” and “Off-set” of the individual photomultiplier tubes were adjusted between experiments in order to obtain optimal image acquisition avoiding saturation. For multi-channel image acquisition, the channels were scanned in a sequential recording mode to avoid spectral cross-talk caused by overlapping excitation and/or emission spectra of fluorophores. Acquisition mode “XYZ” and image resolutions (pixels/image) of 512 × 512 or 1024 × 1024 were selected and pinhole size was set to 1 Airy Unit. Depending on acquisition requirements the scan speed was set as either 400 or 700 Hz and for single section images, the same optical section was scanned 3x to generate a line average image. Captured images were then analysed using ImageJ. […]

[4] = 0.5 µM Lat B, 30 min preincubation, then 2 µM EGFP-R8 for 1 hr with Lat B

Row | Structure (SMILES) | effect on actin cytoskeleton ([1]; 0.1 μM Lat B, basal and CBA sections) | effect on actin cytoskeleton ([1]; 0.5 μM Lat B) | effect on actin cytoskeleton ([1]; 1 μM Lat B) | fold increase in uptake (EGFP-R8) (A431 cells [2]; 0.5 µM Lat B, 30 min preincubation, then 2 µM EGFP-R8 for 1 hr with Lat B, heparin wash, vs diluent control, P = 0.0045) | Normalised Fluoresence Intensity (EGFP-R8) (A431 cells [2]; [4]) | effect on cell associated EGFP-R8 fluorescence (A431 cells [3]; [4]) | effect on actin organisation ([1]; 0.2 µM JAS, 45 min, basal and CBA regions) | effect on actin organisation ([1]; 2 µM JAS, 45 min) | effect on actin organisation (actin staining) ([1]; 4 µM JAS, 45 min) | Normalised Fluoresence Intensity (EGFP-R8) (A431 cells [2]; 4 µM JAS, 45 min preincubation, then 2 µM EGFP-R8 for 1 hr with JAS) | fold increase in fluorescence (EGFP-R8 uptake) (A431 cells [2]; 4 µM JAS, 45 min preincubation, then 2 µM EGFP-R8 for 1 hr with JAS, vs diluent control (0.4% v/v DMSO), P = 0.0025) | effect on EGFP-R8 uptake (A431 cells [3]; 2–4 µM JAS, 45 min preincubation, then 2 µM EGFP-R8 for 1 hr with JAS)
1 | C/C1=C/C(=O)O[C@@H]2C[C@@H](CC[C@H](C)/C=C\CC1)O[C@@](O)([C@@H]1CSC(=O)N1)C2 [Lat B, Latrunculin B] | formation of small actin aggregates | these aggregates were extremely prominent | major disruption of the actin organisation | 6.23 fold | 6.23 | much higher fluorescence compared to controls |  |  |  |  |  | 
2 | C/C1=C\[C@H](C)C[C@H](C)OC(=O)C[C@H](c2ccc(O)cc2)NC(=O)[C@@H](Cc2c(Br)[nH]c3ccccc23)N(C)C(=O)[C@H](C)NC(=O)[C@@H](C)C1 [JAS, Jasplakinolide] |  |  |  |  |  |  | actin staining was more prominent on the cell periphery | actin staining appeared in large clumps | completely lost from all cells | 4.00 | four | dramatic increase
